The results in this text go back to patent US9539252B2, “Piperazine-substituted benzothiophene derivatives as antipsychotic agents” (OTSUKA PHARMACEUTICAL CO., LTD., priority 2011, dated 2017).

The nature of this data set: Solubility in oil (sesame oil, benzyl benzoate), visual observation. The conditions noted are these: oil or lipid, thermodynamic from solid.

Turning to `O=C(OCN1C(=O)CCc2ccc(OCCCCN3CCN(c4cccc5sccc45)CC3)cc21)N1CCCCC1` [Example 9, piperidine-1-carboxylic acid 7-[4-(4-benzo[b]thiophen-4-ylpiperazin-1-yl)butoxy]-2-oxo-3,4-dihydro-2H-quinolin-1-ylmethyl ester], the solubility (benzyl benzoate) was above 100 mg/mL.
On the same count and under the same terms, the result for `O=C(OCn1c(=O)ccc2ccc(OCCCCN3CCN(c4cccc5sccc45)CC3)cc21)N1CCCCC1` [Example 10, piperidine-1-carboxylic acid 7-[4-(4-benzo[b]thiophen-4-ylpiperazin-1-yl)butoxy]-2-oxo-2H-quinolin-1-ylmethyl ester] reads above 100 mg/mL; that for `O=C(OCN1C(=O)CCc2ccc(OCCCCN3CCN(c4cccc5sccc45)CC3)cc21)c1ccccc1` [Example 11, benzoic acid 7-[4-(4-benzo[b]thiophen-4-ylpiperazin-1-yl)butoxy]-2-oxo-3,4-dihydro-2H-quinolin-1-ylmethyl ester], above 100 mg/mL.
Still for that read-out and setting: the result for `O=C(OCn1c(=O)ccc2ccc(OCCCCN3CCN(c4cccc5sccc45)CC3)cc21)c1ccccc1` [Example 12, benzoic acid 7-[4-(4-benzo[o]thiophen-4-ylpiperazin-1-yl)butoxy]-2-oxo-2H-quinolin-1-ylmethyl ester] reads above 100 mg/mL; that for `O=C(OCN1C(=O)CCc2ccc(OCCCCN3CCN(c4cccc5sccc45)CC3)cc21)C1CCCC1` [Example 13, cyclopentanecarboxylic acid 7-[4-(4-benzo[b]thiophen-4-ylpiperazin-1-yl)butoxy]-2-oxo-3,4-dihydro-2H-quinolin-1-ylmethyl ester], above 100 mg/mL; that for `O=C(OCN1C(=O)CCc2ccc(OCCCCN3CCN(c4cccc5sccc45)CC3)cc21)C1CCCCC1` [Example 14, cyclohexanecarboxylic acid 7-[4-(4-benzo[b]thiophen-4-ylpiperazin-1-yl)butoxy]-2-oxo-3,4-dihydro-2H-quinolin-1-ylmethyl ester], above 100 mg/mL.
Turning to `CC(C)(C)C(=O)OCN1C(=O)CCc2ccc(OCCCCN3CCN(c4cccc5sccc45)CC3)cc21` [Example 15, 2,2-dimethylpropionic acid 7-[4-(4-benzo[b]thiophen-4-ylpiperazin-1-yl)butoxy]-2-oxo-3,4-dihydro-2H-quinolin-1-ylmethyl ester], the solubility (benzyl benzoate) was above 100 mg/mL.
In the case of `CCCCN(C)C(=O)OCN1C(=O)CCc2ccc(OCCCCN3CCN(c4cccc5sccc45)CC3)cc21` [Example 16, N-butyl-N-methylcarbamic acid 7-[4-(4-benzo[b]thiophen-4-ylpiperazin-1-yl)butoxy]-2-oxo-3,4-dihydro-2H-quinolin-1-ylmethyl ester], for the setting “benzyl benzoate”, the solubility was above 100 mg/mL.
Regarding `CCCCCCCCCCNC(=O)OCN1C(=O)CCc2ccc(OCCCCN3CCN(c4cccc5sccc45)CC3)cc21` [Example 17, N-decylcarbamic acid 7-[4-(4-benzo[b]thiophen-4-ylpiperazin-1-yl)butoxy]-2-oxo-3,4-dihydro-2H-quinolin-1-ylmethyl ester], the solubility was above 100 mg/mL (benzyl benzoate) and above 100 mg/mL (sesame oil).
Consider `CC(C)(C)C(=O)OCn1c(=O)ccc2ccc(OCCCCN3CCN(c4cccc5sccc45)CC3)cc21` [Example 18, 2,2-dimethylpropionic acid 7-[4-(4-benzo[b]thiophen-4-ylpiperazin-1-yl)butoxy]-2-oxo-2H-quinolin-1-ylmethyl ester], for which, for the setting “benzyl benzoate”, the solubility was above 100 mg/mL.
On the same count and under the same terms, the result for `CCCC(=O)OCN1C(=O)CCc2ccc(OCCCCN3CCN(c4cccc5sccc45)CC3)cc21` [Example 19, butyric acid 7-[4-(4-benzo[b]thiophen-4-ylpiperazin-1-yl)butoxy]-2-oxo-3,4-dihydro-2H-quinolin-1-ylmethyl ester] reads above 100 mg/mL; that for `CCCC(=O)OCn1c(=O)ccc2ccc(OCCCCN3CCN(c4cccc5sccc45)CC3)cc21` [Example 20, butyric acid 7-[4-(4-benzo[b]thiophen-4-ylpiperazin-1-yl)butoxy]-2-oxo-2H-quinolin-1-ylmethyl ester], above 100 mg/mL.
With `CCCCCCCCCCCC(=O)OCN1C(=O)CCc2ccc(OCCCCN3CCN(c4cccc5sccc45)CC3)cc21` [Example 21, dodecanoic acid 7-[4-(4-benzo[b]thiophen-4-ylpiperazin-1-yl)butoxy]-2-oxo-3,4-dihydro-2H-quinolin-1-ylmethyl ester], the solubility is above 100 mg/mL (benzyl benzoate) and above 100 mg/mL (sesame oil).
As to `CCCCCCCCCCCC(=O)OCn1c(=O)ccc2ccc(OCCCCN3CCN(c4cccc5sccc45)CC3)cc21` [Example 22, dodecanoic acid 7-[4-(4-benzo[b]thiophen-4-ylpiperazin-1-yl)butoxy]-2-oxo-2H-quinolin-1-ylmethyl ester], the solubility (benzyl benzoate) is above 100 mg/mL.
With `CCCCCCCCCCCCCCCC(=O)OCN1C(=O)CCc2ccc(OCCCCN3CCN(c4cccc5sccc45)CC3)cc21` [Example 23, hexadecanoic acid 7-[4-(4-benzo[b]thiophen-4-ylpiperazin-1-yl)butoxy]-2-oxo-3,4-dihydro-2H-quinolin-1-ylmethyl ester], the solubility (benzyl benzoate) is above 100 mg/mL.
With `CCCCCCCC(=O)OCN1C(=O)CCc2ccc(OCCCCN3CCN(c4cccc5sccc45)CC3)cc21` [Example 24, octanoic acid 7-[4-(4-benzo[b]thiophen-4-ylpiperazin-1-yl)butoxy]-2-oxo-3,4-dihydro-2H-quinolin-1-ylmethyl ester], the solubility (benzyl benzoate) was above 100 mg/mL.
On the same count and under the same terms, the result for `CCCCNC(=O)OCN1C(=O)CCc2ccc(OCCCCN3CCN(c4cccc5sccc45)CC3)cc21` [Example 27, N-butylcarbamic acid 7-[4-(4-benzo[b]thiophen-4-ylpiperazin-1-yl)butoxy]-2-oxo-3,4-dihydro-2H-quinolin-1-ylmethyl ester] reads above 100 mg/mL.
Turning to `CCCCN(CCCC)C(=O)OCN1C(=O)CCc2ccc(OCCCCN3CCN(c4cccc5sccc45)CC3)cc21` [Example 28, N,N-dibutylcarbamic acid 7-[4-(4-benzo[b]thiophen-4-ylpiperazin-1-yl)butoxy]-2-oxo-3,4-dihydro-2H-quinolin-1-ylmethyl ester], the solubility runs as follows: (benzyl benzoate) above 100 mg/mL; (sesame oil) above 100 mg/mL.
As to `O=C(NCC1CCCCC1)OCN1C(=O)CCc2ccc(OCCCCN3CCN(c4cccc5sccc45)CC3)cc21` [Example 29, N-cyclohexylmethylcarbamic acid 7-[4-(4-benzo[b]thiophen-4-ylpiperazin-1-yl)butoxy]-2-oxo-3,4-dihydro-2H-quinolin-1-ylmethyl ester], the solubility (benzyl benzoate) is above 100 mg/mL.
The same measure, in the same setting: in the case of `CCCCCCCC(=O)OCn1c(=O)ccc2ccc(OCCCCN3CCN(c4cccc5sccc45)CC3)cc21` [Example 30, octanoic acid 7-[4-(4-benzo[b]thiophen-4-ylpiperazin-1-yl)butoxy]-2-oxo-2H-quinolin-1-ylmethyl ester] it was above 100 mg/mL.
Same read-out and setting: in the case of `CCCCCCCCCCCCCCCCCCCC(=O)OCN1C(=O)CCc2ccc(OCCCCN3CCN(c4cccc5sccc45)CC3)cc21` [Example 31, icosanoic acid 7-[4-(4-benzo[b]thiophen-4-ylpiperazin-1-yl)butoxy]-2-oxo-3,4-dihydro-2H-quinolin-1-ylmethyl ester] it was above 100 mg/mL; in that of `O=C(OCn1c(=O)ccc2ccc(OCCCCN3CCN(c4cccc5sccc45)CC3)cc21)C1CCCCC1` [Example 32, cyclohexanecarboxylic acid 7-[4-(4-benzo[b]thiophen-4-ylpiperazin-1-yl)butoxy]-2-oxo-2H-quinolin-1-ylmethyl ester], above 100 mg/mL; in that of `CCCCCCCC/C=C\CCCCCCCC(=O)OCN1C(=O)CCc2ccc(OCCCCN3CCN(c4cccc5sccc45)CC3)cc21` [Example 33, (Z)-octadec-9-enoic acid 7-[4-(4-benzo[b]thiophen-4-ylpiperazin-1-yl)butoxy]-2-oxo-3,4-dihydro-2H-quinolin-1-ylmethyl ester], above 100 mg/mL.
The same measure, in the same setting: the result for `CCCCCCCCCCNC(=O)OCn1c(=O)ccc2ccc(OCCCCN3CCN(c4cccc5sccc45)CC3)cc21` [Example 34, N-decylcarbamic acid 7-[4-(4-benzo[b]thiophen-4-ylpiperazin-1-yl)butoxy]-2-oxo-2H-quinolin-1-ylmethyl ester] reads above 100 mg/mL; that for `CCCCNC(=O)OCn1c(=O)ccc2ccc(OCCCCN3CCN(c4cccc5sccc45)CC3)cc21` [Example 35, N-butylcarbamic acid 7-[4-(4-benzo[b]thiophen-4-ylpiperazin-1-yl)butoxy]-2-oxo-2H-quinolin-1-ylmethyl ester], above 100 mg/mL.
For the setting “benzyl benzoate”, `CCCCN(C)C(=O)OCn1c(=O)ccc2ccc(OCCCCN3CCN(c4cccc5sccc45)CC3)cc21` [Example 36, N-butyl-N-methylcarbamic acid 7-[4-(4-benzo[b]thiophen-4-ylpiperazin-1-yl)butoxy]-2-oxo-2H-quinolin-1-ylmethyl ester] gave a solubility above 100 mg/mL.
On the same count and under the same terms, the result for `O=C(OCn1c(=O)ccc2ccc(OCCCCN3CCN(c4cccc5sccc45)CC3)cc21)C1CCCC1` [Example 37, cyclopentanecarboxylic acid 7-[4-(4-benzo[b]thiophen-4-ylpiperazin-1-yl)butoxy]-2-oxo-2H-quinolin-1-ylmethyl ester] reads above 100 mg/mL; that for `CCCCCCCCCCCCCCCCCCNC(=O)OCn1c(=O)ccc2ccc(OCCCCN3CCN(c4cccc5sccc45)CC3)cc21` [Example 38, N-octadecylcarbamic acid 7-[4-(4-benzo[b]thiophen-4-ylpiperazin-3-yl)butoxy]-2-oxo-2H-quinolin-1-ylmethyl ester], above 100 mg/mL; that for `CCCCCCCC/C=C\CCCCCCCC(=O)OCn1c(=O)ccc2ccc(OCCCCN3CCN(c4cccc5sccc45)CC3)cc21` [Example 39, (Z)-octadec-9-enoic acid 7-[4-(4-benzo[b]thiophen-4-ylpiperazin-1-yl)butoxy]-2-oxo-2H-quinolin-1-ylmethyl ester], above 100 mg/mL.
Take `CCCCCC(CCCCC)C(=O)OCN1C(=O)CCc2ccc(OCCCCN3CCN(c4cccc5sccc45)CC3)cc21` [Example 40, 2-pentylheptanoic acid 7-[4-(4-benzo[b]thiophen-4-ylpiperazin-1-yl)butoxy]-2-oxo-3,4-dihydro-2H-quinolin-1-ylmethyl ester]: under “benzyl benzoate”, the solubility is above 100 mg/mL.
